Source: patent US8476287B2, “3-hydroxy-5-arylisothiazole derivative” (Mochida Pharmaceutical Co., Ltd., priority 2009, dated 2013)
Counter-ions that a name gives are not always drawn.

Target: T1, GPR40 of human origin (Homo sapiens, UniProt O14842)
T1 construct: expressed in transfected cells
Assay: Agonist action on GPR40 of human origin (Ca2+ fluorescence in CHO cells)
Type: cell-based
Settings: CHO cell strain stably expressing GPR40 of human origin; Ca2+ concentration fluctuation, fluorescent calcium indicator
Procedure: A CHO cell strain stably expressing GPR40 of human origin was used to determine the agonist action of a subject compound. This cell strain was seeded in a clear bottom 96 well plate at 4×10^4 cells/100 μL/well. The cell strain was cultured in a CO2 incubator overnight using a Ham's F-12 medium containing a 10% fetal bovine serum, 100 U/mL penicillin, 0.1 mg/mL streptomycin, and 400 μg/mL Geneticin. Calcium 4 Assay Kit (Molecular Devices) was used as a fluorescent calcium indicator. One mL of 77 mg/mL probenecid (Invitrogen) was added to 100 mL of a calcium indicator solution to prepare a solution (loading solution) mixed with a 20 mM HEPES-containing Hanks' balanced salt solution (HBSS) in equal proportions. 200 μL of the loading solution was added to the cells from which the culture solution was removed, and the cells were cultured in a CO2 incubator for 1 hour. The subject compound was diluted with a 20 mM HEPES-containing HBSS and was added to the cells by 50 μL, and the fluctuation of the Ca^2+ concentration was measured by an intracellular ion analyzer. The EC50 value of the subject compound was calculated using the dose-response curve of fluorescence intensity variation.

T1 sequence (O14842 whole entry): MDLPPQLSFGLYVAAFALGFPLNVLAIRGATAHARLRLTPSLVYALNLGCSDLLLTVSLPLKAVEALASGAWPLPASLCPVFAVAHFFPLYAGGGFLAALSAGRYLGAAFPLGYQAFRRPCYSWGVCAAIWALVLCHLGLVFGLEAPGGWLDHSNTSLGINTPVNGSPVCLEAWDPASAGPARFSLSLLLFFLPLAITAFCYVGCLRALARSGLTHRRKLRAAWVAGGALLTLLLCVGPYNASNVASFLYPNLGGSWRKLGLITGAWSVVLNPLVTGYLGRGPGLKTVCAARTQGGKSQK

Row | SMILES | EC50
1 | Cc1cc(OCCC(C)(C)O)nc(C)c1-c1cccc(COc2ccc(-c3cc(O)n[s+]3[O-])cc2)c1C (centres unmarked) [Example 12, 5-(4-((3-(2,4-dimethyl-6-(3-hydroxy-3-methylbutoxy)pyridin-3-yl)-2-methylphenyl)methoxy)phenyl)isothiazol-3-ol 1-oxide] | < 300 nM
2 | CCOCCOc1cc(C)c(-c2cccc(COc3ccc(-c4cc(O)n[s+]4[O-])cc3)c2)c(C)n1 (centres unmarked) [Example 19, 5-(4-((3-(2,4-dimethyl-6-(2-ethoxyethoxy)pyridin-3-yl)phenyl)methoxy)phenyl)isothiazol-3-ol 1-oxide(A)] | < 300 nM
3 | Cc1cc(OCC2(C)COC2)c(F)c(C)c1-c1cccc(COc2ccc(-c3cc(O)n[s+]3[O-])cc2)c1 (centres unmarked) [Example 43] | < 300 nM
4 | Cc1cc(OCCCS(C)(=O)=O)c(F)c(C)c1-c1cccc(COc2ccc(-c3cc(O)n[s+]3[O-])cc2)c1 (centres unmarked) [Example 27, 5-(4-((3-(2,6-dimethyl-3-fluoro-4-(3-(methylsulfonyl)propoxy)phenyl)phenyl)methoxy)phenyl)isothiazol-3-ol 1-oxide(A)] | < 300 nM
5 | Cc1cc(OCC[C@@H](C)O)cc(C)c1-c1cccc(COc2ccc(-c3cc(O)n[s+]3[O-])cc2)c1 (stereo partly drawn) [Example 63, 5-(4-((3-(2,6-dimethyl-4-((3R)-3-hydroxybutoxy)phenyl)phenyl)methoxy)phenyl)isothiazol-3-ol 1-oxide(A)] | < 300 nM
6 | Cc1cc(OCC[C@H](C)O)cc(C)c1-c1cccc(COc2ccc(-c3cc(O)n[s+]3[O-])cc2)c1C (stereo partly drawn) [Example 61, 5-(4-((3-(2,6-dimethyl-4-((3S)-3-hydroxybutoxy)phenyl)-2-methylphenyl)methoxy)phenyl)isothiazol-3-ol 1-oxide(A)] | < 300 nM
7 | CC(=O)NCCCOc1ccc(-c2cccc(COc3ccc(-c4cc(O)n[s+]4[O-])cc3)c2C)c(C)n1 (centres unmarked) [Example 71, N-[3-[5-[3-[[4-(3-hydroxy-1-oxo-isothiazol-5-yl)phenoxy]methyl]-2-methylphenyl]-6-methylpyridin-2-yl]oxypropyl]acetamide(A)] | 300 to 3000 nM
8 | Cc1cc(OCCC(C)(C)O)ncc1-c1cccc(COc2ccc(-c3cc(O)n[s+]3[O-])cc2)c1C (centres unmarked) [Example 10, 5-(4-((3-(6-(3-hydroxy-3-methylbutoxy)-4-methylpyridin-3-yl)-2-methylphenyl)methoxy)phenyl)isothiazol-3-ol 1-oxide] | < 300 nM
9 | CCOCCOc1cc(C)c(-c2cccc(COc3ccc(-c4cc(O)n[s+]4[O-])cc3)c2)c(C)c1 (centres unmarked) [Example 17, 5-(4-((3-(2,6-dimethyl-4-(2-ethoxyethoxy)phenyl)phenyl)methoxy)phenyl)isothiazol-3-ol 1-oxide(A)] | < 300 nM
10 | [O-][s+]1nc(O)cc1-c1ccc(OCc2cccc(Oc3ccccc3)c2)cc1 (centres unmarked) [Example 2, 5-(4-((3-phenoxyphenyl)methoxy)phenyl)isothiazol-3-ol 1-oxide] | 300 to 3000 nM
11 | Cc1cc(OCCCNS(C)(=O)=O)cc(C)c1-c1cccc(COc2ccc(-c3cc(O)n[s+]3[O-])cc2)c1 (centres unmarked) [Example 72, N-[3-[4-[3-[[4-(3-hydroxy-1-oxo-isothiazol-5-yl)phenoxy]methyl]phenyl]-3,5-dimethylphenoxy]propyl]methanesulfonamide(A)] | < 300 nM
12 | CCOCCOc1cc(C)c(-c2cccc(COc3ccc(-c4cc(O)n[s+]4[O-])cc3)c2)c(C)c1F (centres unmarked) [Example 22, 5-(4-((3-(2,6-dimethyl-4-(2-ethoxyethoxy)-3-fluorophenyl)phenyl)methoxy)phenyl)isothiazol-3-ol 1-oxide(A)] | < 300 nM
13 | Cc1cc(OCCC(C)(C)O)cc(C)c1-c1cccc(COc2ccc(-c3cc(O)n[s+]3[O-])cc2)c1C (centres unmarked) [Example 31, 5-(4-((3-(2,6-dimethyl-4-(3-hydroxy-3-methylbutoxy)phenyl)-2-methylphenyl)methoxy)phenyl)isothiazol-3-ol 1-oxide(A)] | < 300 nM
14 | Cc1cccc(C)c1-c1cccc2c1CC[C@H]2Oc1ccc(-c2cc(O)n[s+]2[O-])cc1 (single isomer, unassigned) [Example 107] | < 300 nM
15 | Cc1cc(OCC[C@@H](C)O)cc(C)c1-c1cccc(COc2ccc(-c3cc(O)n[s+]3[O-])cc2)c1C (stereo partly drawn) [Example 64, 5-(4-((3-(2,6-dimethyl-4-((3R)-3-hydroxybutoxy)phenyl)-2-methylphenyl)methoxy)phenyl)isothiazol-3-ol 1-oxide(A)] | < 300 nM
16 | CCOCCOc1cc(C)c(-c2cccc3c2CC[C@H]3Oc2ccc(-c3cc(O)n[s+]3[O-])cc2)c(C)c1 (single isomer, unassigned) [Example 139] | < 300 nM

The next lines start with the values.

Row | EC50 | SMILES
17 | 300 to 3000 nM | [O-][s+]1nc(O)cc1-c1ccc(COCc2cccc(Br)c2)cc1 (centres unmarked) [Example 141, 5-[4-[(3-bromophenyl)methoxymethyl]phenyl]isothiazol-3-ol 1-oxide]
18 | < 300 nM | Cc1cc(OCCCS(C)(=O)=O)cc(C)c1-c1cccc2c1CC[C@H]2Oc1ccc(-c2cc(O)n[s+]2[O-])cc1 (single isomer, unassigned) [Example 138]
19 | 300 to 3000 nM | [O-][s+]1nc(O)cc1-c1ccc(O[C@H]2CCc3c(Br)cccc32)cc1 (stereo partly drawn) [Example 67, 5-(4-((1S)-4-bromo-2,3-dihydro-1H-inden-1-yloxy)phenyl)isothiazol-3-ol 1-oxide(A)]
20 | < 300 nM | Cc1nc(OCCC(C)(C)O)ccc1-c1cccc2c1CC[C@H]2Oc1ccc(-c2cc(O)n[s+]2[O-])cc1 (single isomer, unassigned) [Example 135]
21 | < 300 nM | Cc1cc(OCC2(C)COC2)cc(C)c1-c1cccc(COc2ccc(-c3cc(O)n[s+]3[O-])cc2)c1C (centres unmarked) [Example 42, 5-(4-((3-(2,6-dimethyl-4-((3-methyl-3-oxetanyl)methoxy)phenyl)-2-methylphenyl)methoxy)phenyl)isothiazol-3-ol 1-oxide(A)]
22 | < 300 nM | Cc1cc(OC2CCS(=O)(=O)CC2)cc(C)c1-c1cccc(COc2ccc(-c3cc(O)n[s+]3[O-])cc2)c1 (centres unmarked) [Example 28, 5-(4-((3-(2,6-dimethyl-4-((1,1-dioxidetetrahydro-2H-thiopyran-4-yl)oxy)phenyl)phenyl)methoxy)phenyl)isothiazol-3-ol 1-oxide(A)]
23 | < 300 nM | Cc1cc(OC2CCS(=O)(=O)CC2)cc(C)c1-c1cccc(COc2ccc(-c3cc(O)n[s+]3[O-])cc2)c1C (centres unmarked) [Example 29, 5-(4-((3-(2,6-dimethyl-4-((1,1-dioxidetetrahydro-2H-thiopyran-4-yl)oxy)phenyl)-2-methylphenyl)methoxy)phenyl)isothiazol-3-ol 1-oxide(A)]
24 | < 300 nM | Cc1cc(OCCCS(C)(=O)=O)nc(C)c1-c1cccc(COc2ccc(-c3cc(O)n[s+]3[O-])cc2)c1 (centres unmarked) [Example 24, 5-(4-((3-(2,4-dimethyl-6-(3-(methylsulfonyl)propoxy)pyridin-3-yl)phenyl)methoxy)phenyl)isothiazol-3-ol 1-oxide(A)]
25 | < 300 nM | [O-][s+]1nc(O)cc1-c1ccc(OC2COc3c2cccc3C(F)(F)F)cc1 (centres unmarked) [Example 80, 1-oxo-5-[4-[[7-(trifluoromethyl)-2,3-dihydro-1-benzofuran-3-yl]oxy]phenyl]-1,2-thiazol-3-ol (A)]
26 | < 300 nM | Cc1cc(OC[C@H](O)CO)c(F)c(C)c1-c1cccc(COc2ccc(-c3cc(O)n[s+]3[O-])cc2)c1 (stereo partly drawn) [Example 59, 5-(4-((3-(4-((2R)-2,3-dihydroxypropoxy)-2,6-dimethyl-3-fluorophenyl)phenyl)methoxy)phenyl)isothiazol-3-ol 1-oxide(A)]
27 | < 300 nM | COc1cc(Oc2cccc3c2CCC3Oc2ccc(-c3cc(O)n[s+]3[O-])cc2)ccn1 (centres unmarked) [Example 126, 5-[4-[[4-(2-methoxypyridin-4-yl)oxy-2,3-dihydro-1H-inden-1-yl]oxy]phenyl]isothiazol-3-ol 1-oxide(A)]
28 | < 300 nM | COc1ccc(-c2cccc3c2CC[C@H]3Oc2ccc(-c3cc(O)n[s+]3[O-])cc2)c(C)n1 (stereo partly drawn) [Example 119, 5-[4-[[(1R)-4-(6-methoxy-2-methylpyridin-3-yl)-2,3-dihydro-1H-inden-1-yl]oxy]phenyl]isothiazol-3-ol 1-oxide(A)trifluoroacetate salt]
29 | 300 to 3000 nM | CC1(C)CC=C(c2cccc3c2CC[C@H]3Oc2ccc(-c3cc(O)n[s+]3[O-])cc2)CC1 (single isomer, unassigned) [Example 120]
30 | 300 to 3000 nM | [O-][s+]1nc(O)cc1-c1ccc(OCc2cccc3c2OCC3)cc1 (single isomer, unassigned) [Example 95, 5-[4-(2,3-dihydro-1-benzofuran-7-ylmethoxy)phenyl]isothiazol-3-ol 1-oxide(A)]
31 | < 300 nM | Cc1cc(OCCCO)cc(C)c1-c1cccc(COc2ccc(-c3cc(O)n[s+]3[O-])cc2)c1 (centres unmarked) [Example 47, 5-(4-((3-(2,6-dimethyl-4-(3-hydroxypropoxy)phenyl)phenyl)methoxy)phenyl)isothiazol-3-ol 1-oxide(A)]
32 | < 300 nM | [O-][s+]1nc(O)cc1-c1ccc(OC2CCc3c(OCc4ccccc4)cccc32)cc1 (centres unmarked) [Example 129, 5-[4-[(4-phenylmethoxy-2,3-dihydro-1H-inden-1-yl)oxy]phenyl]isothiazol-3-ol 1-oxide(A)]
